Assay results: US10099045B2, “Administration of antibiotics and therapeutic agents” (priority 2008, dated 2018)
Values joined by “and” are separate entries in the source; they are usually repeats but may differ in a detail not shown here. Equal entries are not always repeated. Where two headings read alike, the source gives them in different places.

Experiments:
[1] = intravenous bolus 1 g, cited from earlier work
STA 29213 MSSA = assay: MIC of Cefazolin, broth dilution method; assay type: cell-based, S. aureus; conditions: for MIC/Cefazolin: single determinations
Description: (§1) Accordingly, further tests of Cephazolin with a range of different MRSA strains at concentrations well above the dose achievable by IV delivery were made to understand these finding. The Minimum inhibitory concentration (MIC) of Cephazolin with respect to these various strains is reported below in Table 1 in units are in .mu·g/ml of Cefazolin using the broth dilution method. MIC is the lowest concentration of an antimicrobial that will inhibit the visible growth of a microorganism after overnight incubation. STA 29213 is the conventional strain of S. aureus, showing normal sensitivity to Cefazolin with an MIC of 0.5.mu·g/ml.
(§2) The colony count in the last column is just a quality control measure to insure the correct innooculum.

[2] = tested on: methicillin-sensitive Staphylococcus aureus (MSSA), Klebsiella pneumoniae, Escherichia coli, Streptococcus spp.; conditions: 360 MSSA, 204 K. pneumoniae, 314 E. coli, 30 Streptococcus spp. isolates; cited from earlier work
STA 25923 MSSA = assay: MIC of Cefazolin, broth dilution method; assay type: cell-based, Staphylococcus aureus
Description: as §1, §2

MRSA 146 = assay: MIC of Cefazolin, broth dilution method; assay type: cell-based, Staphylococcus aureus
Description: as §1, §2

MRSA 56 (494) = assay: MIC of Cefazolin, broth dilution method; assay type: cell-based, Staphylococcus aureus
Description: as §1, §2

MRSA 148 = assay: MIC of Cefazolin, broth dilution method; assay type: cell-based, Staphylococcus aureus
Description: as §1, §2

MRSA 151 = assay: MIC of Cefazolin, broth dilution method; assay type: cell-based, Staphylococcus aureus
Description: as §1, §2

MRSA 116 = assay: MIC of Cefazolin, broth dilution method; assay type: cell-based, Staphylococcus aureus
Description: as §1, §2

MRSA 147 = assay: MIC of Cefazolin, broth dilution method; assay type: cell-based, Staphylococcus aureus
Description: as §1, §2

MRSA 142 ATCC 33591 MRSA = assay: MIC of Cefazolin, broth dilution method; assay type: cell-based, Staphylococcus aureus
Description: as §1, §2

MRSA 152 = assay: MIC of Cefazolin, broth dilution method; assay type: cell-based, Staphylococcus aureus
Description: as §1, §2

Mu 50 MRSA VISA = assay: MIC of Cefazolin, broth dilution method; assay type: cell-based, Staphylococcus aureus
Description: as §1, §2

Mu 3 MRSA hVISA = assay: MIC of Cefazolin, broth dilution method; assay type: cell-based, Staphylococcus aureus; conditions: for MIC/Cefazolin: single determinations
Description: as §1, §2

MRSA 145 = assay: MIC of Cefazolin, broth dilution method; assay type: cell-based, Staphylococcus aureus
Description: as §1, §2

MRSA 150 = assay: MIC of Cefazolin, broth dilution method; assay type: cell-based, Staphylococcus aureus
Description: as §1, §2

MRSA 144 = assay: MIC of Cefazolin, broth dilution method; assay type: cell-based, Staphylococcus aureus
Description: as §1, §2

MRSA 149 = assay: MIC of Cefazolin, broth dilution method; assay type: cell-based, Staphylococcus aureus
Description: as §1, §2

MRSA 143 = assay: MIC of Cefazolin, broth dilution method; assay type: cell-based, Staphylococcus aureus
Description: as §1, §2

[3] = Adipose tissue and serum concentration after subcutaneous infusion with transcutaneous ultrasound, elective abdominoplasty; conditions: for blood serum concentration: 1 gm subcutaneous plus ultrasound, when surgery was completed about an hour later
Description: A prophylactic dose of the antibiotic Cafazolin was delivered to a patient by the above procedure prior to elective abdominoplasty using the Silberg Tissue Preparation Systems TM Model ME 800 (9801427) Mettler Surgical, Anaheim, Calif.). About 250 cc of prewarmed saline containing 1 gm of Cefazolin was injected under a surgical incision line 201 that was about 5 cm long. Small sample of adipose tissue where taken during the surgical procedure to determine if the Cefazolin would remain above desired concentration reported by Ohge et al., and thus remain sufficiently high through the procedure. Further, blood serum samples were taken during the procedure to determine the potential for a longer term systemic delivery.

[4] = Staphylococcus aureus, read-out: Median MIC

SMILES: Cc1nnc(SCC2=C(C(=O)O)N3C(=O)[C@@H](NC(=O)Cn4cnnn4)[C@H]3SC2)s1 [Cefazolin]
- serum concentration ([1]; after about 4 hours): about 10 μg/ml
- mean tissue concentration ([1]; after slightly more than 2 hours of surgery): below 4 μg/ml
- mean tissue concentration ([1]; an hour after surgery commenced): about 10 μg/ml
- mean tissue concentration ([1]; an hour after surgery commenced, listed as antibiotic): 10 µg/mL
- serum concentration ([1]; end of the same time period (slightly more than 2 hours)): ~40000 ng/mL
- serum concentration ([1]; start of the same time period (an hour after surgery commenced)): about 80 μg/ml
- MIC (STA 29213 MSSA; [4]): 0.5 µg/mL
- MIC/Cefazolin (STA 29213 MSSA; MSSA strain): 1 µg/mL
- MIC/Cefazolin (STA 29213 MSSA; conventional S. aureus strain STA 29213): 0.5 µg/mL
- tissue level to achieve minimum inhibitory concentrations for 80% (MIC80) of four bacterial species [2]: about 4 μg/ml
- MIC (STA 25923 MSSA; [4]): 0.5 µg/mL
- MIC/Cefazolin (STA 25923 MSSA; single determinations): 0.5 µg/mL
- MIC/Cefazolin (MRSA 146; MRSA 146, single determinations): 64 µg/mL and 128 µg/mL
- MIC (MRSA 146; Staphylococcus aureus, MRSA 146, read-out: Median MIC): 64 µg/mL
- MIC (MRSA 56 (494); [4]): 128 µg/mL
- MIC/Cefazolin (MRSA 56 (494); single determinations): 64 µg/mL and 128 µg/mL
- MIC/Cefazolin (MRSA 148; MRSA 148, single determinations): 256 µg/mL and 128 µg/mL
- MIC (MRSA 148; Staphylococcus aureus, MRSA 148, read-out: Median MIC): 256 µg/mL
- MIC/Cefazolin (MRSA 151; MRSA 151, single determinations): 128 µg/mL
- MIC (MRSA 151; Staphylococcus aureus, MRSA 151, read-out: Median MIC): 128 µg/mL
- MIC/Cefazolin (MRSA 116; MRSA 116, single determinations): 512 µg/mL and 256 µg/mL
- MIC (MRSA 116; Staphylococcus aureus, MRSA 116, read-out: Median MIC): 256 µg/mL
- MIC/Cefazolin (MRSA 147; MRSA 147, single determinations): 64 µg/mL
- MIC (MRSA 147; Staphylococcus aureus, MRSA 147, read-out: Median MIC): 64 µg/mL
- MIC/Cefazolin (MRSA 142 ATCC 33591 MRSA; MRSA 142 ATCC 33591, single determinations): 256 µg/mL
- MIC (MRSA 142 ATCC 33591 MRSA; Staphylococcus aureus, MRSA 142 ATCC 33591, read-out: Median MIC): 256 µg/mL
- MIC/Cefazolin (MRSA 152; MRSA 152, single determinations): 4 µg/mL and 8 µg/mL
- MIC (MRSA 152; Staphylococcus aureus, MRSA 152, read-out: Median MIC): 4 µg/mL
- MIC (Mu 50 MRSA VISA; [4]): 256 µg/mL
- MIC/Cefazolin (Mu 50 MRSA VISA; single determinations): 256 µg/mL
- MIC relative to the dose required for normal strains (Mu 3 MRSA hVISA; MU 3, most resistant strain): about 50 times
- MIC/Cefazolin (Mu 3 MRSA hVISA; Mu 3 MRSA hVISA): 512 µg/mL
- MIC/Cefazolin (Mu 3 MRSA hVISA; Mu 3 MRSA hVISA, listed as antibiotic): about 512 μg/ml
- MIC (Mu 3 MRSA hVISA; Staphylococcus aureus, Mu 3 MRSA hVISA, read-out: Median MIC): 512 µg/mL
- MIC/Cefazolin (MRSA 145; MRSA 145, single determinations): 128 µg/mL
- MIC (MRSA 145; Staphylococcus aureus, MRSA 145, read-out: Median MIC): 128 µg/mL
- MIC/Cefazolin (MRSA 150; MRSA 150, single determinations): 512 µg/mL
- MIC (MRSA 150; Staphylococcus aureus, MRSA 150, read-out: Median MIC): 512 µg/mL
- MIC/Cefazolin (MRSA 144; MRSA 144, single determinations): 64 µg/mL and 128 µg/mL
- MIC (MRSA 144; Staphylococcus aureus, MRSA 144, read-out: Median MIC): 64 µg/mL
- MIC/Cefazolin (MRSA 149; MRSA 149, single determinations): 128 µg/mL
- MIC (MRSA 149; Staphylococcus aureus, MRSA 149, read-out: Median MIC): 128 µg/mL
- MIC/Cefazolin (MRSA 143; MRSA 143, single determinations): 64 µg/mL and 128 µg/mL
- MIC (MRSA 143; Staphylococcus aureus, MRSA 143, read-out: Median MIC): 128 µg/mL
- blood serum concentration [3]: about 10 μg/ml
- blood serum concentration ([3]; listed as antibiotic): less than 10 μg/ml
- tissue concentration relative to intravenous administration of Ohge et al. ([3]; human, in vivo): about 50 times
- Kp ([3]; human, in vivo, 1 gm): < 10
